The target in assay [1] is PI3K alpha E545K mutant (Homo sapiens, UniProt P42336, E545K). The note with it: relative to PI3K alpha.
Procedure: After an incubation time of 30 minutes at room temperature, the reactions were stopped by the addition of GRP-1 and PIP3-TAMRA probe (Echelon-Inc., Salt Lake City, Utah.) 100 nM and 5 nM final concentrations respectively. Read with standard cut-off filters for the rhodamine fluorophore (λex=530 nm; λem=590 nm) in 384-well black low volume Proxiplates® (PerkinElmer, Wellesley, Mass.) Fluorescence polarization values were plotted as a function of the protein concentration. EC50 values were obtained by fitting the data to a four-parameter equation using KaleidaGraph® software (Synergy software, Reading, Pa.). This experiment also establishes the appropriate protein concentration to use in subsequent competition experiments with inhibitors.
After an incubation time of 30 minutes at room temperature, the reactions were stopped by the addition of GRP-1 and PIP3-TAMRA probe (Echelon-Inc., Salt Lake City, Utah.) 100 nM and 5 nM final concentrations respectively.
The compound was serially diluted in 100% DMSO. The kinase reaction was incubated for 1 h at room temperature, and the reaction was terminated by the addition of PBS. IC50 values were subsequently determined using sigmoidal dose-response curve fit (variable slope).
In assay [2] the test system is SF539. The experiment in a line: CellTiter-Glo cell proliferation assay. The class given is cell-based. The settings on record: Homo sapiens, SF-539, Glioma, PTEN. A general note: In ATP-based viability assays light output follows the ATP content of the culture.
The test system of assay [3] is H2009. The experiment in a line: CellTiter-Glo cell proliferation assay. The class given is cell-based. The settings on record: Homo sapiens, NCI-H2009, Lung(NSCLC), K-RAS.
The subject of assay [4] is A549. The experiment in a line: CellTiter-Glo cell proliferation assay. The class given is cell-based. The note with it: Homo sapiens, Lung(NSCLC), K-RAS.
In assay [5] the test system is CAL-148. Kind of assay: CellTiter-Glo cell proliferation assay. The settings on record: Homo sapiens, Breast, Kinase(HET.1047H > R)/-PTEN. The class given is cell-based.
Procedure: Cell Culture Medium: RPMI or DMEM high glucose, 10% Fetal Bovine Serum, 2 mM L-Glutamine, P/S. Incubate O/N (overnight) at 37° C., 5% CO2.
Drug Addition to Cells, Cell Plate (1:10 dilution): Add 6 μl of media+compound directly to cells (54 μl of media on the cells already). Incubate 3 days at 37° C., 5% CO2 in an incubator that will not be opened often.
Day 5—Develop Plates, Thaw Cell Titer Glo Buffer at room temperature: Remove Cell Plates from 37° C. and equilibrate to room temperature for about 30 minutes. Add Cell Titer-Glo® Buffer to Cell Titer-Glo® Substrate (bottle to bottle). Add 30 μl Cell Titer-Glo® Reagent (Promega cat.#G7572) to each well of cells. Place on plate shaker for about 30 minutes. Read luminescence on Analyst HT Plate Reader (half second per well).
The subject of assay [6] is U-118MG. The experiment in a line: CellTiter-Glo cell proliferation assay. Format: cell-based. The settings on record: Homo sapiens, Glioma, PTEN.
The subject of assay [7] is INK-134. Kind of assay: CellTiter-Glo cell proliferation assay. Format: cell-based. The settings on record: Glioma, Helical-HET.545E > D, HET.1043M > I.
The subject of assay [8] is IPC298. Kind of assay: CellTiter-Glo cell proliferation assay. Format: cell-based. The note with it: Homo sapiens, IPC-298, Melanoma, NRAS Q61L.

Sequence of PI3K alpha E545K mutant (P42336 whole entry E545K): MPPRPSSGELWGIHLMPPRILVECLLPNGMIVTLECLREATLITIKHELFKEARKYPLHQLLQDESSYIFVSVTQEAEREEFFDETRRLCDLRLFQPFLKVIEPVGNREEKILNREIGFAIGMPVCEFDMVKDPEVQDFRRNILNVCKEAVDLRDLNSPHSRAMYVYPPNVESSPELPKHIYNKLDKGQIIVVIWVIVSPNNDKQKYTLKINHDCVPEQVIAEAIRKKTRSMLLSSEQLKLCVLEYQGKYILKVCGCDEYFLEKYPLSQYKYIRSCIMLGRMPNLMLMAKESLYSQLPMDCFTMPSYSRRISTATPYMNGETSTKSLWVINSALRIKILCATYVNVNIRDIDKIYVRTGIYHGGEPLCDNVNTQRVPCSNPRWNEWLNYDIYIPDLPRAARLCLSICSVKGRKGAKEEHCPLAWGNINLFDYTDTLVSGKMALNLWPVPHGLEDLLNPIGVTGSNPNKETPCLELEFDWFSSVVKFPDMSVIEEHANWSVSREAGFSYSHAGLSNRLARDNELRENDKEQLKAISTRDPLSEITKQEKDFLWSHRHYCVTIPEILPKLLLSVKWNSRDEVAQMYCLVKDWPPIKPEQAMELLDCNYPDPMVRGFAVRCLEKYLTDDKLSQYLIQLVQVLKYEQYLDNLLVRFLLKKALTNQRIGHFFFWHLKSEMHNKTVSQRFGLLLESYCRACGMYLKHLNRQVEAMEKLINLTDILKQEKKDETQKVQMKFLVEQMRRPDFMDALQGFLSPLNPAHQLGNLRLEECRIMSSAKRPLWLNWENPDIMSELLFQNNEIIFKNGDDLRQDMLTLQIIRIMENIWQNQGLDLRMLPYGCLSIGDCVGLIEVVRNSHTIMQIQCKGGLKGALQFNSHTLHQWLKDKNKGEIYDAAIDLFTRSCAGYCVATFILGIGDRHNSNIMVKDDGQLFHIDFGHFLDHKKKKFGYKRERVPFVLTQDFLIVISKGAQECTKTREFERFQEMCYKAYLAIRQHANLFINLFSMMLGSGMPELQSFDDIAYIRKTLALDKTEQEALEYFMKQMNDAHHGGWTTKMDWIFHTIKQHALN
Sequence of PI3K alpha E545K mutant (P27986 whole entry partner): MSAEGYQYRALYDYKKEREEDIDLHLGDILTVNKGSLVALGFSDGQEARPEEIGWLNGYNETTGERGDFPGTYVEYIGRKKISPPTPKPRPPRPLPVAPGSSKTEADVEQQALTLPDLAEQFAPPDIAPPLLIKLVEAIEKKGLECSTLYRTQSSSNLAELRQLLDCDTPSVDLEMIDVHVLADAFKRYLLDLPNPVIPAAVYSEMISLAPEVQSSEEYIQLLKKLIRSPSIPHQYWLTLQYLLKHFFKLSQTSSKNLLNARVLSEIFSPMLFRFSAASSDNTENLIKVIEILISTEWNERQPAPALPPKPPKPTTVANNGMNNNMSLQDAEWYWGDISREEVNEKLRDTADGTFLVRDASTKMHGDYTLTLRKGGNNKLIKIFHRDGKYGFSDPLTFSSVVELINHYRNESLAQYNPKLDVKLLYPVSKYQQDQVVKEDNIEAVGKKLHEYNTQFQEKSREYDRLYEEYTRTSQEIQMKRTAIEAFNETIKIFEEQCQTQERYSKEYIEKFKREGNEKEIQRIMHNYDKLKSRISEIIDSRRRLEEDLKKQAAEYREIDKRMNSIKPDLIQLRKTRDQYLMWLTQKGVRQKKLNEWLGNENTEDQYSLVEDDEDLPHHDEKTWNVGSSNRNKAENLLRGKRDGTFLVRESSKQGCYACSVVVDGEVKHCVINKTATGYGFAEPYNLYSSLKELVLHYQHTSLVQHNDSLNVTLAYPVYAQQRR

One may read the EC50 as the concentration needed to bring the measured effect to its halfway point. Higher therefore signals weaker potency. Regarding `Cc1nc(-c2cn3c(n2)-c2ccc(-c4cnn(C(C)(C)C(N)=O)c4)cc2OCC3)n(C(C)C)n1` [GDC-0032, 2-(4-(2-(1-isopropyl-3-methyl-1H-1,2,4-triazol-5-yl)-5,6-dihydrobenzo[f]imidazo[1,2-d][1,4]oxazepin-9-yl)-1H-pyrazol-1-yl)-2-methylpropanamide], the “PI3K alpha E545K mutant” value in assay [1] was found to be 0.4x. Further, the EC50 in assay [2] came out at 1880 nM; in assay [3], 710 nM; in assay [4] it was 906 nM; in assay [5], 375 nM; in assay [6], 3200 nM; in assay [7] it was 976 nM. Further, in assay [8], a half-maximal effect (EC50) was put at 10000 nM.
